# In BindingDB's records for doi:10.1016/j.bmcl.2009.09.017 (Pfizer, 2009):
# Test: Antagonist activity at P2Y12 receptor in human platelet rich plasma assessed as inhibition of ADP-induced platelet aggregation by light transmission aggregometry
row,Structure (SMILES),IC50 [µM]
1,CCCCOC(=O)N1CCN(C(=O)[C@H](CCC(=O)O)NC(=O)c2cc(OC(CC)C(=O)N(CC)CC)nc(-c3ccccc3)n2)CC1 (stereo partly drawn) [(4S)-5-(4-(butoxycarbonyl)piperazin-1-yl)-4-(6-(1-(diethylamino)-1-oxobutan-2-yloxy)-2-phenylpyrimidine-4-carboxamido)-5-oxopentanoic acid],49
2,CCCCOC(=O)N1CCN(C(=O)[C@H](CCC(=O)O)NC(=O)c2cc(OCC3CCCO3)nc(-c3ccccc3)n2)CC1 (stereo partly drawn) [(4S)-5-(4-(butoxycarbonyl)piperazin-1-yl)-5-oxo-4-(2-phenyl-6-((tetrahydrofuran-2-yl)methoxy)pyrimidine-4-carboxamido)pentanoic acid],4.4
3,CCCCCOC(=O)N1CCN(C(=O)[C@H](CCC(=O)O)NC(=O)c2cc(NCC3CCNC3)nc(-c3ccccc3)n2)CC1 (stereo partly drawn) [(4S)-5-oxo-5-(4-(pentyloxycarbonyl)piperazin-1-yl)-4-(2-phenyl-6-(pyrrolidin-3-ylmethylamino)pyrimidine-4-carboxamido)pentanoic acid],2.6
4,CCCCCOC(=O)N1CCN(C(=O)[C@H](CCC(=O)O)NC(=O)c2nc(NC3CCN(C(C)C)CC3)cc(-c3ccccc3)n2)CC1 [(S)-4-(4-(1-isopropylpiperidin-4-ylamino)-6-phenylpyrimidine-2-carboxamido)-5-oxo-5-(4-(pentyloxycarbonyl)piperazin-1-yl)pentanoic acid],> 10
5,CCCCCOC(=O)N1CCN(C(=O)[C@H](CCC(=O)O)NC(=O)c2nc(NCCCN(C)C)cc(-c3ccccc3)n2)CC1 [(S)-4-(4-(3-(dimethylamino)propylamino)-6-phenylpyrimidine-2-carboxamido)-5-oxo-5-(4-(pentyloxycarbonyl)piperazin-1-yl)pentanoic acid],> 10
6,CCCCCOC(=O)N1CCN(C(=O)[C@H](CCC(=O)O)NC(=O)c2nc(-c3ccccc3)cc(N3CCN(CC(=O)N(C)C)CC3)n2)CC1 [(S)-4-(4-(4-(2-(dimethylamino)-2-oxoethyl)piperazin-1-yl)-6-phenylpyrimidine-2-carboxamido)-5-oxo-5-(4-(pentyloxycarbonyl)piperazin-1-yl)pentanoic acid],3
7,CCCCCOC(=O)N1CCN(C(=O)[C@H](CCC(=O)O)NC(=O)c2nc(-c3ccccc3)cc(N3CCC(OCCO)CC3)n2)CC1 [(S)-4-(4-(4-(2-hydroxyethoxy)piperidin-1-yl)-6-phenylpyrimidine-2-carboxamido)-5-oxo-5-(4-(pentyloxycarbonyl)piperazin-1-yl)pentanoic acid],> 10
8,CCCCCOC(=O)N1CCN(C(=O)[C@H](CCC(=O)O)NC(=O)c2nc(-c3ccccc3)cc(N3CCC(OCCOC)CC3)n2)CC1 [(S)-4-(4-(4-(2-methoxyethoxy)piperidin-1-yl)-6-phenylpyrimidine-2-carboxamido)-5-oxo-5-(4-(pentyloxycarbonyl)piperazin-1-yl)pentanoic acid],5.3
9,CCCCCOC(=O)N1CCN(C(=O)[C@H](CCC(=O)O)NC(=O)c2nc(-c3ccccc3)cc(N3CCN(CCOC)CC3)n2)CC1 [(S)-4-(4-(4-(2-methoxyethyl)piperazin-1-yl)-6-phenylpyrimidine-2-carboxamido)-5-oxo-5-(4-(pentyloxycarbonyl)piperazin-1-yl)pentanoic acid],5.1
10,CCCCCOC(=O)N1CCN(C(=O)[C@H](CCC(=O)O)NC(=O)c2nc(-c3ccccc3)cc(N3CCC(CCOC)CC3)n2)CC1 [(S)-4-(4-(4-(2-methoxyethyl)piperidin-1-yl)-6-phenylpyrimidine-2-carboxamido)-5-oxo-5-(4-(pentyloxycarbonyl)piperazin-1-yl)pentanoic acid],> 10
11,CCCCCOC(=O)N1CCN(C(=O)[C@H](CCC(=O)O)NC(=O)c2nc(-c3ccccc3)cc(N3CCC(COCCOC)CC3)n2)CC1 [(S)-4-(4-(4-((2-methoxyethoxy)methyl)piperidin-1-yl)-6-phenylpyrimidine-2-carboxamido)-5-oxo-5-(4-(pentyloxycarbonyl)piperazin-1-yl)pentanoic acid],> 10
12,CCCCCOC(=O)N1CCN(C(=O)[C@H](CCC(=O)O)NC(=O)c2nc(-c3ccccc3)cc(N3CCC(CNC)CC3)n2)CC1 [(S)-4-(4-(4-((methylamino)methyl)piperidin-1-yl)-6-phenylpyrimidine-2-carboxamido)-5-oxo-5-(4-(pentyloxycarbonyl)piperazin-1-yl)pentanoic acid],1.3
13,CCCCCOC(=O)N1CCN(C(=O)[C@H](CCC(=O)O)NC(=O)c2nc(-c3ccccc3)cc(N3CCN(C(=O)N(C)C)CC3)n2)CC1 [(S)-4-(4-(4-(dimethylcarbamoyl)piperazin-1-yl)-6-phenylpyrimidine-2-carboxamido)-5-oxo-5-(4-(pentyloxycarbonyl)piperazin-1-yl)pentanoic acid],> 10
14,CCCCCOC(=O)N1CCN(C(=O)[C@H](CCC(=O)O)NC(=O)c2nc(-c3ccccc3)cc(N3CCN(C(C)=O)CC3)n2)CC1 [(S)-4-(4-(4-acetylpiperazin-1-yl)-6-phenylpyrimidine-2-carboxamido)-5-oxo-5-(4-(pentyloxycarbonyl)piperazin-1-yl)pentanoic acid],6.5
15,CCCCCOC(=O)N1CCN(C(=O)[C@H](CCC(=O)O)NC(=O)c2nc(-c3ccccc3)cc(N3CCC(N)CC3)n2)CC1 [(S)-4-(4-(4-aminopiperidin-1-yl)-6-phenylpyrimidine-2-carboxamido)-5-oxo-5-(4-(pentyloxycarbonyl)piperazin-1-yl)pentanoic acid],2.7
16,CCCCCOC(=O)N1CCN(C(=O)[C@H](CCC(=O)O)NC(=O)c2nc(-c3ccccc3)cc(N3CCN(C(N)=O)CC3)n2)CC1 [(S)-4-(4-(4-carbamoylpiperazin-1-yl)-6-phenylpyrimidine-2-carboxamido)-5-oxo-5-(4-(pentyloxycarbonyl)piperazin-1-yl)pentanoic acid],3.6
17,CCCCCOC(=O)N1CCN(C(=O)[C@H](CCC(=O)O)NC(=O)c2nc(-c3ccccc3)cc(N3CCC(OC)CC3)n2)CC1 [(S)-4-(4-(4-methoxypiperidin-1-yl)-6-phenylpyrimidine-2-carboxamido)-5-oxo-5-(4-(pentyloxycarbonyl)piperazin-1-yl)pentanoic acid],> 10

# Now from value to compound:
row,IC50 [µM],Structure (SMILES)
1,0.86,CCCCCOC(=O)N1CCN(C(=O)[C@H](CCC(=O)O)NC(=O)c2cc(N3CCC(CN(CC)CC)CC3)nc(-c3ccccc3)n2)CC1 [(4S)-4-[(6-{4-[(diethylamino)methyl]piperidin-1-yl}-2-phenylpyrimidin-4-yl)formamido]-5-oxo-5-{4-[(pentyloxy)carbonyl]piperazin-1-yl}pentanoic acid]
2,> 10,CCCCCOC(=O)N1CCN(C(=O)[C@H](CCC(=O)O)NC(=O)c2nc(OCCN(CC)CC)cc(-c3ccccc3)n2)CC1 [(S)-4-(4-(2-(diethylamino)ethoxy)-6-phenylpyrimidine-2-carboxamido)-5-oxo-5-(4-(pentyloxycarbonyl)piperazin-1-yl)pentanoic acid]
3,> 10,CCCCCOC(=O)N1CCN(C(=O)[C@H](CCC(=O)O)NC(=O)c2nc(OCCOC)cc(-c3ccccc3)n2)CC1 [(S)-4-(4-(2-methoxyethoxy)-6-phenylpyrimidine-2-carboxamido)-5-oxo-5-(4-(pentyloxycarbonyl)piperazin-1-yl)pentanoic acid]
4,> 10,CCCCCOC(=O)N1CCN(C(=O)[C@H](CCC(=O)O)NC(=O)c2nc(NCCOC)cc(-c3ccccc3)n2)CC1 [(S)-4-(4-(2-methoxyethylamino)-6-phenylpyrimidine-2-carboxamido)-5-oxo-5-(4-(pentyloxycarbonyl)piperazin-1-yl)pentanoic acid]
5,7,CCCCCOC(=O)N1CCN(C(=O)[C@H](CCC(=O)O)NC(=O)c2nc(OCCCN3CCOCC3)cc(-c3ccccc3)n2)CC1 [(S)-4-(4-(3-morpholinopropoxy)-6-phenylpyrimidine-2-carboxamido)-5-oxo-5-(4-(pentyloxycarbonyl)piperazin-1-yl)pentanoic acid]
6,1.4,CCCCCOC(=O)N1CCN(C(=O)[C@H](CCC(=O)O)NC(=O)c2nc(-c3ccccc3)cc(N3CCC(CCN)CC3)n2)CC1 [(S)-4-(4-(4-(2-aminoethyl)piperidin-1-yl)-6-phenylpyrimidine-2-carboxamido)-5-oxo-5-(4-(pentyloxycarbonyl)piperazin-1-yl)pentanoic acid]
7,1.2,CCCCCOC(=O)N1CCN(C(=O)[C@H](CCC(=O)O)NC(=O)c2nc(-c3ccccc3)cc(N3CCC(CNCC)CC3)n2)CC1 [(S)-4-(4-(4-((ethylamino)methyl)piperidin-1-yl)-6-phenylpyrimidine-2-carboxamido)-5-oxo-5-(4-(pentyloxycarbonyl)piperazin-1-yl)pentanoic acid]
8,0.77,CCCCCOC(=O)N1CCN(C(=O)[C@H](CCC(=O)O)NC(=O)c2nc(-c3ccccc3)cc(N3CCC(CN)CC3)n2)CC1 [(S)-4-(4-(4-(aminomethyl)piperidin-1-yl)-6-phenylpyrimidine-2-carboxamido)-5-oxo-5-(4-(pentyloxycarbonyl)piperazin-1-yl)pentanoic acid]
9,1.3,CCCCCOC(=O)N1CCN(C(=O)[C@H](CCC(=O)O)NC(=O)c2nc(-c3ccccc3)cc(N3CCC(C(=O)N(CC)CC)CC3)n2)CC1 [(S)-4-(4-(4-(diethylcarbamoyl)piperidin-1-yl)-6-phenylpyrimidine-2-carboxamido)-5-oxo-5-(4-(pentyloxycarbonyl)piperazin-1-yl)pentanoic acid]
10,6.8,CCCCCOC(=O)N1CCN(C(=O)[C@H](CCC(=O)O)NC(=O)c2nc(-c3ccccc3)cc(N3CCC(COC)CC3)n2)CC1 [(S)-4-(4-(4-(methoxymethyl)piperidin-1-yl)-6-phenylpyrimidine-2-carboxamido)-5-oxo-5-(4-(pentyloxycarbonyl)piperazin-1-yl)pentanoic acid]
11,2.3,CCCCCOC(=O)N1CCN(C(=O)[C@H](CCC(=O)O)NC(=O)c2nc(-c3ccccc3)cc(N3CCC(C(N)=O)CC3)n2)CC1 [(S)-4-(4-(4-carbamoylpiperidin-1-yl)-6-phenylpyrimidine-2-carboxamido)-5-oxo-5-(4-(pentyloxycarbonyl)piperazin-1-yl)pentanoic acid]
12,8.1,CCCCCOC(=O)N1CCN(C(=O)[C@H](CCC(=O)O)NC(=O)c2nc(-c3ccccc3)cc(N3CCN(C)CC3)n2)CC1 [(S)-4-(4-(4-methylpiperazin-1-yl)-6-phenylpyrimidine-2-carboxamido)-5-oxo-5-(4-(pentyloxycarbonyl)piperazin-1-yl)pentanoic acid]
